Key:
[1] = test system: Beet Armyworm (Spodoptera exigua); experiment: Bioassay on Beet Armyworm (BAW), 128-well diet tray assay; type: in vivo; details: Beet Armyworm, Table ABC, read-out: BAW rating
Procedure: (§1) Example A: Bioassays on Beet Armyworm (Spodoptera Exigua, LAPHEG) (“BAW”), Corn Earworm (Helicoverpa Zea, HELIZE) (“CEW”), and Cabbage Looper (Trichoplusia Ni, TRIPNI) (“CL”)
(§2) Certain molecules disclosed in this document were tested against BAW, CEW, and CL using procedures described in the following examples. In the reporting of the results, the “BAW, CEW, & CL Rating Table” was used (See Table Section).
Bioassays on BAW were conducted using a 128-well diet tray assay. One to five second instar BAW larvae were placed in each well (3 mL) of the diet tray that had been previously filled with 1 mL of artificial diet to which 50 μg/cm^2 of the test molecule (dissolved in 50 μL of 90:10 acetone-water mixture) had been applied (to each of eight wells) and then allowed to dry. Trays were covered with a clear self-adhesive cover and held at 25° C., 14:10 light-dark for five to seven days. Percent mortality was recorded for the larvae in each well; activity in the eight wells was then averaged. The results are indicated in the table entitled “Table ABC: Biological Results” (See Table Section).
(§3) Bioassays on BAW and CL were conducted according to the procedures outlined in Example A: Bioassays on Beet Armyworm (“BAW”) and Cabbage Looper (“CL”) using the indicated concentrations.

[2] = test system: Cabbage Looper (Trichoplusia ni); experiment: Bioassay on Cabbage Looper (CL), 128-well diet tray assay; type: in vivo; details: Cabbage Looper, Table ABC, read-out: CL rating
Procedure: as §1, §2
Bioassays on CL were conducted using a 128-well diet tray assay. One to five second instar CL larvae were placed in each well (3 mL) of the diet tray that had been previously filled with 1 mL of artificial diet to which 50 μg/cm^2 of the test molecule (dissolved in 50 μL of 90:10 acetone-water mixture) had been applied (to each of eight wells) and then allowed to dry. Trays were covered with a clear self-adhesive cover and held at 25° C., 14:10 light-dark for five to seven days. Percent mortality was recorded for the larvae in each well; activity in the eight wells was then averaged. The results are indicated in the table entitled “Table ABC: Biological Results” (See Table Section).
as §3

C=CCON(CC(F)(F)F)C(=O)[C@@H](C)NC(=O)c1ccc(/C(F)=C/C(c2cc(Cl)c(Cl)c(Cl)c2)C(F)(F)F)cc1C(F)(F)F (stereo partly drawn) [F27, N—((R)-1-((Allyloxy)(2,2,2-trifluoroethyl)amino)-1-oxopropan-2-yl)-4-((Z)-1,4,4,4-tetrafluoro-3-(3,4,5-trichlorophenyl)but-1-en-1-yl)-2-(trifluoromethyl)benzamide]
pest or weed control at 50 µg/cm2 [1]: 50 to 100% | pest or weed control at 50 µg/cm2 [2]: 50 to 100%

O=C(NC1(C(=O)NCC(F)(F)F)CC1)c1ccc(/C(F)=C/C(c2cc(Cl)c(Cl)c(Cl)c2)C(F)(F)F)cc1Cl (stereo not shown) [F28, (Z)-2-Chloro-4-(1,4,4,4-tetrafluoro-3-(3,4,5-trichlorophenyl)but-1-en-1-yl)-N-(1-((2,2,2-trifluoroethyl)carbamoyl)cyclopropyl)benzamide]
pest or weed control at 50 µg/cm2 [1]: 50 to 100% | pest or weed control at 50 µg/cm2 [2]: 50 to 100%

C[C@@H](NC(=O)c1ccc(/C(F)=C/C(c2cc(Cl)c(Cl)c(Cl)c2)C(C)(F)F)cc1C(F)(F)F)C(=O)NCC(F)(F)F (stereo partly drawn) [F29, N—((R)-1-Oxo-1-((2,2,2-trifluoroethyl)amino)propan-2-yl)-4-((Z)-1,4,4-trifluoro-3-(3,4,5-trichlorophenyl)pent-1-en-1-yl)-2-(trifluoromethyl)benzamide]
pest or weed control at 50 µg/cm2 [1]: 50 to 100% | pest or weed control at 50 µg/cm2 [2]: 50 to 100%

C[C@@H](NC(=O)c1ccc(/C(F)=C/C(c2cc(Cl)c(Cl)c(Cl)c2)C(F)(F)F)cc1C(F)(F)F)C(=O)NCC(F)F (stereo partly drawn) [F30, N—((R)-1-((2,2-Difluoroethyl)amino)-1-oxopropan-2-yl)-4-((Z)-1,4,4,4-tetrafluoro-3-(3,4,5-trichlorophenyl)but-1-en-1-yl)-2-(trifluoromethyl)benzamide]
pest or weed control at 50 µg/cm2 [1]: 50 to 100% | pest or weed control at 50 µg/cm2 [2]: 50 to 100%

C[C@@H](NC(=O)c1ccc(/C(F)=C/C(c2cc(Cl)c(Cl)c(Cl)c2)C(F)(F)F)cc1Br)C(=O)NCC(F)F (stereo partly drawn) [F31, 2-Bromo-N—((R)-1-((2,2-difluoroethyl)amino)-1-oxopropan-2-yl)-4-((Z)-1,4,4,4-tetrafluoro-3-(3,4,5-trichlorophenyl)but-1-en-1-yl)benzamide]
pest or weed control at 50 µg/cm2 [1]: 50 to 100% | pest or weed control at 50 µg/cm2 [2]: 50 to 100%

C[C@@H](NC(=O)c1ccc(/C(F)=C/C(c2cc(Cl)c(Cl)c(Cl)c2)C(F)(F)F)cc1Cl)C(=O)NCC(F)F (stereo partly drawn) [F32, 2-Chloro-N—((R)-1-((2,2-difluoroethyl)amino)-1-oxopropan-2-yl)-4-((Z)-1,4,4,4-tetrafluoro-3-(3,4,5-trichlorophenyl)but-1-en-1-yl)benzamide]
pest or weed control at 50 µg/cm2 [1]: 50 to 100% | pest or weed control at 50 µg/cm2 [2]: 50 to 100%

CN(CC(F)(F)F)C(=O)CNC(=O)c1ccc(/C(F)=C/C(c2cc(Cl)c(Cl)c(Cl)c2)C(F)(F)F)cc1Cl (stereo not shown) [F47, (Z)-2-Chloro-N-(2-(methyl(2,2,2-trifluoroethyl)amino)-2-oxoethyl)-4-(1,4,4,4-tetrafluoro-3-(3,4,5-trichlorophenyl)but-1-en-1-yl)benzamide]
pest or weed control at 50 µg/cm2 [1]: 50 to 100% | pest or weed control at 50 µg/cm2 [2]: 50 to 100%

CN(CC(F)(F)F)C(=O)CNC(=O)c1ccc(/C(F)=C/C(c2cc(Cl)c(Cl)c(Cl)c2)C(F)(F)F)cc1Br (stereo not shown) [F48, (Z)-2-Bromo-N-(2-(methyl(2,2,2-trifluoroethyl)amino)-2-oxoethyl)-4-(1,4,4,4-tetrafluoro-3-(3,4,5-trichlorophenyl)but-1-en-1-yl)benzamide]
pest or weed control at 50 µg/cm2 [1]: 50 to 100% | pest or weed control at 50 µg/cm2 [2]: 50 to 100%

C[C@@H](NC(=O)c1ccc(/C(F)=C/C(c2cc(Cl)c(Cl)c(Cl)c2)C(F)(F)F)cc1Cl)C(=O)N(C)CC(F)(F)F (stereo partly drawn) [F49, 2-Chloro-N—((R)-1-(methyl(2,2,2-trifluoroethyl)amino)-1-oxopropan-2-yl)-4-((Z)-1,4,4,4-tetrafluoro-3-(3,4,5-trichlorophenyl)but-1-en-1-yl)benzamide]
pest or weed control at 50 µg/cm2 [1]: 50 to 100% | pest or weed control at 50 µg/cm2 [2]: 50 to 100%

C[C@@H](NC(=O)c1ccc(/C(F)=C/C(c2cc(Cl)c(Cl)c(Cl)c2)C(F)(F)F)cc1Br)C(=O)N(C)CC(F)(F)F (stereo partly drawn) [F50, 2-Bromo-N—((R)-1-(methyl(2,2,2-trifluoroethyl)amino)-1-oxopropan-2-yl)-4-((Z)-1,4,4,4-tetrafluoro-3-(3,4,5-trichlorophenyl)but-1-en-1-yl)benzamide]
pest or weed control at 50 µg/cm2 [1]: 50 to 100% | pest or weed control at 50 µg/cm2 [2]: 50 to 100%

CN(CC(F)(F)F)C(=O)CNC(=O)c1ccc(/C(F)=C/C(c2cc(Cl)c(Cl)c(Cl)c2)C(F)(F)F)cc1C(F)(F)F (stereo not shown) [F51, (Z)—N-(2-(Methyl(2,2,2-trifluoroethyl)amino)-2-oxoethyl)-4-(1,4,4,4-tetrafluoro-3-(3,4,5-trichlorophenyl)but-1-en-1-yl)-2-(trifluoromethyl)benzamide]
pest or weed control at 50 µg/cm2 [1]: 50 to 100% | pest or weed control at 50 µg/cm2 [2]: 50 to 100%

CC(C)(NC(=O)c1ccc(/C(F)=C/C(c2cc(Cl)c(Cl)c(Cl)c2)C(F)(F)F)cc1C(F)(F)F)C(=O)NCC(F)(F)F (stereo not shown) [F54, (Z)—N-(2-Methyl-1-oxo-1-((2,2,2-trifluoroethyl)amino)propan-2-yl)-4-(1,4,4,4-tetrafluoro-3-(3,4,5-trichlorophenyl)but-1-en-1-yl)-2-(trifluoromethyl)benzamide]
pest or weed control at 50 µg/cm2 [1]: 50 to 100% | pest or weed control at 50 µg/cm2 [2]: 50 to 100%

C[C@@H](NC(=O)c1ccc(/C(F)=C/C(c2cc(Cl)c(Cl)c(Cl)c2)C(F)(F)F)cc1C(F)(F)F)C(=O)N(CC(F)(F)F)NC(=O)OC(C)(C)C (stereo partly drawn) [F55, tert-Butyl 2-((2R)-2-(4-((Z)-1,4,4,4-tetrafluoro-3-(3,4,5-trichlorophenyl)but-1-en-1-yl)-2-(trifluoromethyl)benzamido)propanoyl)-2-(2,2,2-trifluoroethyl)hydrazinecarboxylate]
pest or weed control at 50 µg/cm2 [1]: 50 to 100% | pest or weed control at 50 µg/cm2 [2]: 50 to 100%

O=C(NC1(C(=O)CCC(F)(F)F)CC1)c1ccc(/C(F)=C/C(c2cc(Cl)c(Cl)c(Cl)c2)C(F)(F)F)cc1C(F)(F)F (stereo not shown) [F56, (Z)-4-(1,4,4,4-Tetrafluoro-3-(3,4,5-trichlorophenyl)but-1-en-1-yl)-N-(1-(4,4,4-trifluorobutanoyl)cyclopropyl)-2-(trifluoromethyl)benzamide]
pest or weed control at 50 µg/cm2 [1]: 50 to 100% | pest or weed control at 50 µg/cm2 [2]: 50 to 100%

CC(F)(F)C(/C=C(\F)c1ccc(C(=O)NC2(C(=O)NCC(F)(F)F)CC2)c(C(F)(F)F)c1)c1cc(Cl)c(Cl)c(Cl)c1 (stereo not shown) [F58, (Z)-4-(1,4,4-Trifluoro-3-(3,4,5-trichlorophenyl)pent-1-en-1-yl)-N-(1-((2,2,2-trifluoroethyl)carbamoyl)cyclopropyl)-2-(trifluoromethyl)benzamide]
pest or weed control at 50 µg/cm2 [1]: 50 to 100% | pest or weed control at 50 µg/cm2 [2]: 50 to 100%

CC(F)(F)C(/C=C(\F)c1ccc(C(=O)NCC(=O)NCC(F)(F)F)c(C(F)(F)F)c1)c1cc(Cl)c(Cl)c(Cl)c1 (stereo not shown) [F62, (Z)—N-(2-Oxo-2-((2,2,2-trifluoroethyl)amino)ethyl)-4-(1,4,4-trifluoro-3-(3,4,5-trichlorophenyl)pent-1-en-1-yl)-2-(trifluoromethyl)benzamide]
pest or weed control at 50 µg/cm2 [1]: 50 to 100% | pest or weed control at 50 µg/cm2 [2]: 50 to 100%

CCNC(=O)[C@@H](C)NC(=O)c1ccc(/C(F)=C/C(c2cc(Cl)c(Cl)c(Cl)c2)C(F)(F)F)cc1C(F)(F)F (stereo partly drawn) [F63, N—((R)-1-(Ethylamino)-1-oxopropan-2-yl)-4-((Z)-1,4,4,4-tetrafluoro-3-(3,4,5-trichlorophenyl)but-1-en-1-yl)-2-(trifluoromethyl)benzamide]
pest or weed control at 50 µg/cm2 [1]: 50 to 100% | pest or weed control at 50 µg/cm2 [2]: 50 to 100%

CCNC(=O)[C@@H](C)NC(=O)c1ccc(/C(F)=C/C(c2cc(Cl)c(Cl)c(Cl)c2)C(F)(F)F)cc1Cl (stereo partly drawn) [F64, 2-Chloro-N—((R)-1-(ethylamino)-1-oxopropan-2-yl)-4-((Z)-1,4,4,4-tetrafluoro-3-(3,4,5-trichlorophenyl)but-1-en-1-yl)benzamide]
pest or weed control at 50 µg/cm2 [1]: 50 to 100% | pest or weed control at 50 µg/cm2 [2]: 50 to 100%

CC(NC(=O)CNC(=O)c1ccc(/C(F)=C/C(c2cc(Cl)c(Cl)c(Cl)c2)C(F)(F)F)cc1C(F)(F)F)C(F)(F)F (stereo not shown) [F65, (Z)—N-(2-Oxo-2-((1,1,1-trifluoropropan-2-yl)amino)ethyl)-4-(1,4,4,4-tetrafluoro-3-(3,4,5-trichlorophenyl)but-1-en-1-yl)-2-(trifluoromethyl)benzamide]
pest or weed control at 50 µg/cm2 [1]: 50 to 100% | pest or weed control at 50 µg/cm2 [2]: 50 to 100%

CC(NC(=O)CNC(=O)c1ccc(/C(F)=C/C(c2cc(Cl)c(Cl)c(Cl)c2)C(F)(F)F)cc1Cl)C(F)(F)F (stereo not shown) [F66, (Z)-2-Chloro-N-(2-oxo-2-((1,1,1-trifluoropropan-2-yl)amino)ethyl)-4-(1,4,4,4-tetrafluoro-3-(3,4,5-trichlorophenyl)but-1-en-1-yl)benzamide]
pest or weed control at 50 µg/cm2 [1]: 50 to 100% | pest or weed control at 50 µg/cm2 [2]: 50 to 100%

Reference: patent publication US10251394B2, “Molecules having pesticidal utility, and intermediates, compositions, and processes, related thereto” (Dow AgroSciences LLC, priority 2016, dated 2019)
